According to the NIST ThermoML archive (doi:10.1016/j.jct.2013.03.013):
“And” between values parts separate entries of the source, which are not always exact repeats. Equal entries are not always repeated.

Settings: Liquid, Vibrating wire viscometry

FCC(F)(F)F [1,1,1,2-tetrafluoroethane]
viscosity
Settings	1000 kPa	2000 kPa	3000 kPa	5000 kPa	10000 kPa	15000 kPa	20000 kPa	25000 kPa	30000 kPa
253.14 K	0.3564 mPa·s	–	–	0.3729 mPa·s	0.3937 mPa·s	0.4141 mPa·s	0.4329 mPa·s	0.4553 mPa·s	0.4776 mPa·s
253.16 K	–	–	0.3626 mPa·s	–	0.3914 mPa·s	–	–	–	–
273.15 K	0.2713 mPa·s	–	0.2791 mPa·s	0.2873 mPa·s	0.3052 mPa·s and 0.3031 mPa·s	0.3211 mPa·s	0.3387 mPa·s	0.357 mPa·s	0.3759 mPa·s
293.15 K	0.2115 mPa·s	–	0.2177 mPa·s	0.2227 mPa·s	0.2398 mPa·s and 0.2412 mPa·s	0.2556 mPa·s	0.2725 mPa·s	0.287 mPa·s	0.3023 mPa·s
313.14 K	–	0.1653 mPa·s	0.1693 mPa·s	0.1758 mPa·s	0.1918 mPa·s and 0.1929 mPa·s	0.2068 mPa·s	0.2228 mPa·s	0.236 mPa·s	0.2501 mPa·s
333.16 K	–	0.1247 mPa·s	0.1296 mPa·s	0.1373 mPa·s	0.1537 mPa·s and 0.1543 mPa·s	0.1703 mPa·s	0.1839 mPa·s	0.1966 mPa·s	0.2089 mPa·s
353.15 K	–	–	–	0.1034 mPa·s	0.1246 mPa·s	–	–	–	–
353.16 K	–	–	0.0916 mPa·s	0.1032 mPa·s	0.124 mPa·s	0.1391 mPa·s	0.1535 mPa·s	0.1657 mPa·s	0.1779 mPa·s

C=C(F)C(F)(F)F [2,3,3,3-tetrafluoro-1-propene]
Settings	viscosity [mPa·s]
243.16 K, 99 kPa	0.2892
243.16 K, 1000 kPa	0.2913
243.16 K, 3000 kPa	0.2982
243.16 K, 5000 kPa	0.3049
243.16 K, 10000 kPa	0.3212
243.16 K, 15000 kPa	0.3397
243.16 K, 20000 kPa	0.3572
243.16 K, 25000 kPa	0.3748
243.16 K, 30000 kPa	0.3927
253.16 K, 151 kPa	0.2554
253.16 K, 1000 kPa	0.258
253.16 K, 3000 kPa	0.2638
253.16 K, 5000 kPa	0.2708
253.16 K, 10000 kPa	0.2877
253.16 K, 15000 kPa	0.3038
253.16 K, 20000 kPa	0.3201
253.16 K, 25000 kPa	0.3362
253.16 K, 30000 kPa	0.3517
263.16 K, 222 kPa	0.2265
263.16 K, 1000 kPa	0.229
263.16 K, 3000 kPa	0.2355
263.16 K, 5000 kPa	0.242
263.16 K, 10000 kPa	0.2581
263.16 K, 15000 kPa	0.2731
263.16 K, 20000 kPa	0.2894
263.16 K, 25000 kPa	0.3035
263.16 K, 30000 kPa	0.3178
273.15 K, 316 kPa	0.2019
273.15 K, 1000 kPa	0.2033
273.15 K, 3000 kPa	0.21
273.15 K, 5000 kPa	0.2162
273.15 K, 10000 kPa	0.2313
273.15 K, 15000 kPa	0.2457
273.15 K, 20000 kPa	0.2601
273.15 K, 25000 kPa	0.2744
273.15 K, 30000 kPa	0.2874
283.14 K, 438 kPa	0.1796
283.14 K, 1000 kPa	0.1815
283.14 K, 3000 kPa	0.1873
283.14 K, 5000 kPa	0.194
283.14 K, 10000 kPa	0.2079
283.14 K, 15000 kPa	0.2222
283.14 K, 20000 kPa	0.2356
283.14 K, 25000 kPa	0.2487
283.14 K, 30000 kPa	0.262
293.15 K, 592 kPa	0.1612
293.15 K, 1000 kPa	0.1636
293.15 K, 3000 kPa	0.169
293.15 K, 5000 kPa	0.1755
293.15 K, 10000 kPa	0.1885
293.15 K, 15000 kPa	0.2018
293.15 K, 20000 kPa	0.2152
293.15 K, 25000 kPa	0.2287
293.15 K, 30000 kPa	0.2414
303.15 K, 784 kPa	0.1425
303.15 K, 1000 kPa	0.1434
303.15 K, 3000 kPa	0.149
303.15 K, 5000 kPa	0.1554
303.15 K, 10000 kPa	0.1696
303.15 K, 15000 kPa	0.1834
303.15 K, 20000 kPa	0.1965
303.15 K, 25000 kPa	0.2092
303.15 K, 30000 kPa	0.2215
313.14 K, 1019 kPa	0.1259
313.14 K, 3000 kPa	0.1324
313.14 K, 5000 kPa	0.1392
313.14 K, 10000 kPa	0.1543
313.14 K, 15000 kPa	0.1681
313.14 K, 20000 kPa	0.1808
313.14 K, 25000 kPa	0.1929
313.14 K, 30000 kPa	0.2046
323.16 K, 1303 kPa	0.1103
323.16 K, 3000 kPa	0.1169
323.16 K, 5000 kPa	0.1239
323.16 K, 10000 kPa	0.1396
323.16 K, 15000 kPa	0.1536
323.16 K, 20000 kPa	0.1664
323.16 K, 25000 kPa	0.1783
323.16 K, 30000 kPa	0.1893
333.16 K, 1643 kPa	0.0965
333.16 K, 3000 kPa	0.1031
333.16 K, 5000 kPa	0.1108
333.16 K, 10000 kPa	0.127
333.16 K, 15000 kPa	0.141
333.16 K, 20000 kPa	0.1537
333.16 K, 25000 kPa	0.1656
333.16 K, 30000 kPa	0.1762
343.16 K, 2046 kPa	0.0832
343.16 K, 3000 kPa	0.0885
343.16 K, 5000 kPa	0.0976
343.16 K, 10000 kPa	0.115
343.16 K, 15000 kPa	0.1291
343.16 K, 20000 kPa	0.1417
343.16 K, 25000 kPa	0.1534
343.16 K, 30000 kPa	0.1644
353.16 K, 2521 kPa	0.0685
353.16 K, 3000 kPa	0.0731
353.16 K, 5000 kPa	0.0846
353.16 K, 10000 kPa	0.1035
353.16 K, 15000 kPa	0.1189
353.16 K, 20000 kPa	0.1314
353.16 K, 25000 kPa	0.1424
353.16 K, 30000 kPa	0.1527
363.16 K, 3081 kPa	0.0521
363.16 K, 5000 kPa	0.0732
363.16 K, 10000 kPa	0.093
363.16 K, 15000 kPa	0.109
363.16 K, 20000 kPa	0.1211
363.16 K, 25000 kPa	0.1322
363.16 K, 30000 kPa	0.1429
